Measured values: patent US12018059B2, “Human amylin analog polypeptides and methods of use” (Intarcia Therapeutics, Inc., priority 2018, dated 2024)
Converted amounts (≈) assume the structure as drawn. Where two headings read alike, the source gives them in different places. Blank lines part the entries; values can stand above or below the compound they belong to. Starred links: 1 amine or outer side, 2 acyl side, 3 side chain; linkers in the order of their positions; H or OH if unused. Positions of bridges follow the written chain, without caps; N, C: chain ends. Non-standard residues stand in square brackets, D forms with d. Residues, ends and D or L forms follow the SMILES beside them. Groups on a side chain read outwards from the residue. *: point of attachment. C20 diacid = O=C(O)CCCCCCCCCCCCCCCCCCC(=O)*; γGlu = O=C(O)[C@H](CCC(=O)[*:2])N[*:1]; Stearoyl = CCCCCCCCCCCCCCCCCC(=O)*; Palmitoyl = CCCCCCCCCCCCCCCC(=O)*

Experiments:
[1] = 13-day dose-response body weight loss, continuous SC infusion by osmotic mini-pump; settings: 13 days, LE DIO rats
[2] = Solubility of amylin analog polypeptides (visual inspection, room temperature); type: physicochemical
Description: The analog polypeptides described herein were tested for solubility in saline 20% DMSO in water (i.e., bioassay buffer) or in aqueous (DI water) at room temperature. Samples were visually inspected for clarity of the sample, any appearance of turbidity or haziness.

in vivo = assay: in vivo; set-up: species or system Sprague-Dawley rats; settings: rat, iv, 0.033 mg/kg
In short: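 Male Sprague-Dawley rats, non-fasted (n=3), given peptide in saline as 1-h IV or SC infusion at 0.033 mg/kg, or SC bolus at 0.3 mg/kg; jugular blood to 48 h into K2EDTA plus protease inhibitors. Plasma extracted by precipitation or WCX solid-phase extraction, quantified by UPLC-MS/MS against standards in matching rat plasma.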

[3] = 27-day weight loss in combination with exenatide; settings: LE DIO rats
[4] = Acute food intake inhibition after SC bolus injection (BioDAQ); settings: Long Evans rats on 45% high fat diet
[5] = Stability of amylin analog polypeptides in solution at 37° C. (purity by LC/MS and HPLC); type: physicochemical; settings: 1 mg/ml, trifluoro acetate salt
Description: Several amylin analog polypeptides described herein were tested, as the trifluoro acetate salt, for stability in DMSO (i.e., organosulfur solvent) or in aqueous (i.e., in DI water) at 1 mg/ml solution. These analog polypeptides were incubated at 37° C., and samples were withdrawn at various time intervals and analyzed by LC/MS and HPLC for determination of purity and mass of the parent peptide and extent of any degradation products. The purity results of these analyses are shown in Tables 6A & 6B and are considered indicative of stability.

[6] = TFA salt, DI H2O, room temperature, read-out: Solubility

solubility ([2]; Solubility): 63 mg/mL (≈ 13.6 mM)
Vd (in vivo; male, Sprague-Dawley): 0.398 L/kg
clearance (in vivo; male, Sprague-Dawley): 0.705 mL/min/kg
half-life (in vivo; male, Sprague-Dawley): 452 min
Compound: CCCCCCCCCCCCCCCCCC(=O)N[C@@H](CCC(=O)N[C@@H](CCC(=O)N[C@@H](CCC(=O)NCCCC[C@@H](NC(=O)[C@H](CCC(=O)O)NC(=O)[C@H](CC(N)=O)NC(=O)[C@H](C)NC(=O)[C@H](CC(C)C)NC(=O)[C@H](CCCNC(=N)N)NC(=O)[C@H](CCC(N)=O)NC(=O)[C@@H](NC(=O)[C@H](C)NC(=O)[C@@H]1CSSC[C@H](NC(=O)[C@@H](N)CO)C(=O)N[C@@H](CC(N)=O)C(=O)N[C@@H]([C@@H](C)O)C(=O)N[C@@H](CO)C(=O)N[C@@H]([C@@H](C)O)C(=O)N1)[C@@H](C)O)C(=O)N[C@@H](Cc1c[nH]cn1)C(=O)N[C@@H](CCCCN)C(=O)N[C@@H](CO)C(=O)N[C@@H](CO)C(=O)N[C@@H](CC(N)=O)C(=O)N[C@@H](CC(N)=O)C(=O)N[C@@H](Cc1ccccc1)C(=O)NCC(=O)N1CCC[C@H]1C(=O)N[C@H](C(=O)N[C@@H](CC(C)C)C(=O)N1CCC[C@H]1C(=O)N1CCC[C@H]1C(=O)N[C@H](C(=O)N[C@@H](CCCCN)C(=O)N[C@H](C(=O)NCC(=O)N[C@@H](CO)C(=O)N[C@@H](CCC(=O)O)C(=O)N[C@H](C(=O)N[C@@H](Cc1ccc(O)cc1)C(N)=O)[C@@H](C)O)C(C)C)[C@@H](C)O)[C@@H](C)CC)C(=O)O)C(=O)O)C(=O)O [Compound A13] (H-SCNTSTCATQRLANE[dK]([γGlu-γGlu-γGlu-Stearoyl])HKSSNNFGPILPPTKVGSETY-NH2; disulfide 2-7; N-terminus assumed)
DIO Dose Response 13 d weight loss, ED50 [1]: 55 µg/kg
DIO Dose Response 13 d weight loss, ΔΔ % weight loss ([1]; from baseline and vehicle control): 5%
DIO Combination + Exenatide 27 d weight loss, ΔΔ % weight loss ([3]; dose 3 mcg/kg + Exenatide 10 mcg/kg): 9%
DIO Combination + Exenatide 27 d weight loss, ΔΔ % weight loss ([3]; dose 10 mcg/kg + Exenatide 10 mcg/kg): 12%
DIO Combination + Exenatide 27 d weight loss, ΔΔ % weight loss ([3]; dose 30 mcg/kg + Exenatide 10 mcg/kg): 12%
Acute Food Intake % Inhibition vs vehicle ([4]; 0-24 hr after acute SC dosing): 67%
Acute Food Intake % Inhibition vs vehicle ([4]; 25-48 hr after acute SC dosing): 37%
Acute Food Intake % Inhibition vs vehicle ([4]; 49-72 hr after acute SC dosing): 6%

solubility ([2]; Acetate salt, 20% DMSO in DI H2O, room temperature, read-out: Solubility): 123 mg/mL
solubility ([2]; Acetate salt, DI H2O, room temperature, read-out: Solubility): 104 mg/mL
solubility ([2]; Acetate salt, Saline, room temperature, read-out: Solubility): 88.3 mg/mL
solubility ([2]; TFA salt, 20% DMSO in DI H2O, room temperature, read-out: Solubility): 56 mg/mL
solubility [2, 6]: 103 mg/mL
Vd (in vivo): 0.182 L/kg
clearance (in vivo): 0.0641 mL/min/kg
half-life (in vivo): 2230 min
purity of parent peptide (indicative of stability) ([5]; 20% DMSO in DI Water, Day 0 room temp): 98.8%
purity of parent peptide (indicative of stability) ([5]; 20% DMSO in DI Water, Day 5 37° C.): 98.1%
purity of parent peptide (indicative of stability) ([5]; 20% DMSO in DI Water, Day 8 37° C.): 98.6%
purity of parent peptide (indicative of stability) ([5]; 20% DMSO in DI Water, Day 12 37° C.): 97.9%
purity of parent peptide (indicative of stability) ([5]; 20% DMSO in DI Water, Day 19 37° C.): 97.2%
purity of parent peptide (indicative of stability) ([5]; 20% DMSO in DI Water, Day 25 37° C.): 97.3%
purity of parent peptide (indicative of stability) ([5]; 20% DMSO in DI Water, Day 32 37° C.): 97.2%
purity of parent peptide (indicative of stability) ([5]; DI Water, Day 0 room temp): 100%
purity of parent peptide (indicative of stability) ([5]; DI Water, Day 5 37° C.): 99.1%
purity of parent peptide (indicative of stability) ([5]; DI Water, Day 8 37° C.): 98.1%
purity of parent peptide (indicative of stability) ([5]; DI Water, Day 12 37° C.): 98.1%
purity of parent peptide (indicative of stability) ([5]; DI Water, Day 19 37° C.): 97.4%
purity of parent peptide (indicative of stability) ([5]; DI Water, Day 25 37° C.): 97.3%
purity of parent peptide (indicative of stability) ([5]; DI Water, Day 32 37° C.): 88.5%
Compound: CC[C@H](C)[C@H](NC(=O)[C@@H]1CCCN1C(=O)CNC(=O)[C@H](Cc1ccccc1)NC(=O)[C@H](CC(N)=O)NC(=O)[C@H](CC(N)=O)NC(=O)[C@H](CO)NC(=O)[C@H](CO)NC(=O)[C@H](CCCCN)NC(=O)[C@H](Cc1c[nH]cn1)NC(=O)[C@H](CC(C)C)NC(=O)[C@H](CCC(=O)O)NC(=O)[C@H](CC(N)=O)NC(=O)[C@H](C)NC(=O)[C@H](CC(C)C)NC(=O)[C@H](CCCNC(=N)N)NC(=O)[C@H](CCC(N)=O)NC(=O)[C@@H](NC(=O)[C@H](C)NC(=O)[C@@H]1CSSC[C@H](NC(=O)[C@@H](N)CCCCNC(=O)CC[C@H](NC(=O)CC[C@H](NC(=O)CCCCCCCCCCCCCCCCCCC(=O)O)C(=O)O)C(=O)O)C(=O)N[C@@H](CC(N)=O)C(=O)N[C@@H]([C@@H](C)O)C(=O)N[C@@H](CO)C(=O)N[C@@H]([C@@H](C)O)C(=O)N1)[C@@H](C)O)C(=O)N[C@@H](CC(C)C)C(=O)N1CCC[C@H]1C(=O)N1CCC[C@H]1C(=O)N[C@H](C(=O)N[C@@H](CCCCN)C(=O)N[C@H](C(=O)NCC(=O)N[C@@H](CO)C(=O)N[C@@H](CCC(=O)O)C(=O)N[C@H](C(=O)N[C@@H](Cc1ccc(O)cc1)C(N)=O)[C@@H](C)O)C(C)C)[C@@H](C)O [Compound A64] (H-K([γGlu-γGlu-C20 diacid])CNTSTCATQRLANELHKSSNNFGPILPPTKVGSETY-NH2; disulfide 2-7; N-terminus assumed)

solubility ([2]; Solubility): 78.3 mg/mL (≈ 16.5 mM)
Vd (in vivo): 0.194 L/kg
clearance (in vivo): 0.259 mL/min/kg
half-life (in vivo): 575 min
Compound: CCCCCCCCCCCCCCCC(=O)N[C@@H](CCC(=O)N[C@@H](CCC(=O)N[C@@H](CCC(=O)N[C@@H](CCC(=O)NCCCC[C@@H](NC(=O)[C@H](CCC(=O)O)NC(=O)[C@H](CC(N)=O)NC(=O)[C@H](C)NC(=O)[C@H](CC(C)C)NC(=O)[C@H](CCCNC(=N)N)NC(=O)[C@H](CCC(N)=O)NC(=O)[C@@H](NC(=O)[C@H](C)NC(=O)[C@@H]1CSSC[C@H](NC(=O)[C@@H](N)CO)C(=O)N[C@@H](CC(N)=O)C(=O)N[C@@H]([C@@H](C)O)C(=O)N[C@@H](CO)C(=O)N[C@@H]([C@@H](C)O)C(=O)N1)[C@@H](C)O)C(=O)N[C@@H](Cc1c[nH]cn1)C(=O)N[C@@H](CCCCN)C(=O)N[C@@H](CO)C(=O)N[C@@H](CO)C(=O)N[C@@H](CC(N)=O)C(=O)N[C@@H](CC(N)=O)C(=O)N[C@@H](Cc1ccccc1)C(=O)NCC(=O)N1CCC[C@H]1C(=O)N[C@H](C(=O)N[C@@H](CC(C)C)C(=O)N1CCC[C@H]1C(=O)N1CCC[C@H]1C(=O)N[C@H](C(=O)N[C@@H](CCCCN)C(=O)N[C@H](C(=O)NCC(=O)N[C@@H](CO)C(=O)N[C@@H](CCC(=O)O)C(=O)N[C@H](C(=O)N[C@@H](Cc1ccc(O)cc1)C(N)=O)[C@@H](C)O)C(C)C)[C@@H](C)O)[C@@H](C)CC)C(=O)O)C(=O)O)C(=O)O)C(=O)O [Compound A66] (H-SCNTSTCATQRLANE[dK]([γGlu-γGlu-γGlu-γGlu-Palmitoyl])HKSSNNFGPILPPTKVGSETY-NH2; disulfide 2-7)

solubility [2, 6]: 70.6 mg/mL
Vd (in vivo): 0.198 L/kg
clearance (in vivo): 0.357 mL/min/kg
half-life (in vivo): 428 min
Compound: CCCCCCCCCCCCCCCC(=O)N[C@@H](CCC(=O)N[C@@H](CCC(=O)N[C@@H](CCC(=O)NCCCC[C@@H](NC(=O)[C@H](CCC(=O)O)NC(=O)[C@H](CC(N)=O)NC(=O)[C@H](C)NC(=O)[C@H](CC(C)C)NC(=O)[C@H](CCCNC(=N)N)NC(=O)[C@H](CCC(N)=O)NC(=O)[C@@H](NC(=O)[C@H](C)NC(=O)[C@@H]1CSSC[C@H](NC(=O)[C@@H](N)CO)C(=O)N[C@@H](CC(N)=O)C(=O)N[C@@H]([C@@H](C)O)C(=O)N[C@@H](CO)C(=O)N[C@@H]([C@@H](C)O)C(=O)N1)[C@@H](C)O)C(=O)N[C@@H](Cc1c[nH]cn1)C(=O)N[C@@H](CCCCN)C(=O)N[C@@H](CO)C(=O)N[C@@H](CO)C(=O)N[C@@H](CC(N)=O)C(=O)N[C@@H](CC(N)=O)C(=O)N[C@@H](Cc1ccccc1)C(=O)NCC(=O)N1CCC[C@H]1C(=O)N[C@H](C(=O)N[C@@H](CC(C)C)C(=O)N1CCC[C@H]1C(=O)N1CCC[C@H]1C(=O)N[C@H](C(=O)N[C@@H](CCCCN)C(=O)N[C@H](C(=O)NCC(=O)N[C@@H](CO)C(=O)N[C@@H](CC(N)=O)C(=O)N[C@H](C(=O)N[C@@H](Cc1ccc(O)cc1)C(N)=O)[C@@H](C)O)C(C)C)[C@@H](C)O)[C@@H](C)CC)C(=O)O)C(=O)O)C(=O)O [Compound A67] (H-SCNTSTCATQRLANE[dK]([γGlu-γGlu-γGlu-Palmitoyl])HKSSNNFGPILPPTKVGSNTY-NH2; disulfide 2-7)
